{"source": "patent US6537744B1", "about": "“Use of biomarkers in saliva to evaluate the toxicity of agents and the function of tissues in both biomedical and environmental applications” (priority 1995, dated 2003)", "key": {"[1]": {"test_system": "acetylcholinesterase in human saliva", "test": "Inhibition of acetylcholinesterase in human saliva (acetylthiocholine iodide/DTNB, 405 nm)", "type": "biochemical", "conditions": "for % Activity / % Inhibition / Absorb. at 408 nm for 65 min. / Absorb. at 408 nm for 180 min. / nmol/min per mg: 0.6 mL saliva, 30 min preincubation at room temperature", "protocol": "The hydrolysis of acetylthiocholine iodide (an analog of acetylcholine iodides) by the saliva enzyme or enzymes is measured by generating the yellow 5-thio-2-nitrobenzoate with an absorbance maximum at 405 nm. The rate of change of absorbance is directly proportional to acetylcholinesterase activity. In this procedure, 0.1-1 mL of saliva (3.261 mg protein/mL) is incubated with 100 μL of acetylthiocholine iodide (0.018M) (lot #10H0653 Sigma) for 30-180 minute at 37° C. in 4.0 mL phosphate buffer (pH 7.8). After the incubation, a 0.2 mL of DTNB is added and the sample is read at 405 nm. The enzyme activity is calculated from glutathione standard curve (Table 9 and FIG. 9). Values for AChE activity in human saliva and enzyme kinetics are presented in Tables 10-14 and show in FIG. 10 through FIG. 14.\nThe AChE specific activity in saliva is about 4 nmol minute^−1 per mL of saliva. […] The percent of enzyme inhibition by organophosphate is calculated and presented in Tables 13-14 and showing in FIG. 15."}, "[2]": {"target": "saliva enzymes (esterase activity)", "test": "Inhibition of saliva enzymes (esterase activity) for detection of chemicals in water", "type": "biochemical, human", "protocol": "The presence of chemicals in milk, water, urine and other biological fluids are detected using saliva enzymes. The detection limit for the chemicals depends on the chemical potency and the number of chemicals present in the sample. The data presented here using saliva enzymes indicates a remarkably low concentration of des N-isofenphos (DNIO) in water (3 ng/mL) is detectable using the saliva enzyme method. A 50% inhibition of esterase activity is produced at 3 ng/mL DNIO. In this procedure, the sample is passed through […] solid phase absorption column (C-18) to extract and concentrate the chemicals as described by Knaak et al. (1993). The retention of the chemicals on C-18 column depends on their lipid solubility. The non-polar compounds usually have the highest retention. Then, the chemical is eluted with 1 mL of alcohol. A 0.1 mL of the elute is tested for the inhibition of saliva enzymes as described in this application. Toxicants in solid environmental samples, fruit and vegetables can be extracted with water or proper solvent. Samples of the extract are tested for enzymes inhibition. The inhibition of saliva enzyme indicates the presence of toxicant(s) in the sample and further analysis is needed to identify the specific chemical(s)."}, "[3]": {"conditions": "2 μg of DNIO in 4.0 mL, Test #2, 200 μL saliva, 37° C."}}, "data": [{"smiles": "CCOP(N)(=O)Oc1ccccc1C(=O)OC(C)C", "note": "(stereo not drawn) [DNIO, des N-Isofenphos-oxon]", "values": [{"measurement": "% Activity", "setting": "[1]; 1.0 ng/mL, Test #2", "value": 68, "unit": "%"}, {"measurement": "% Inhibition", "setting": "[1]; 1.0 ng/mL, Test #2", "value": 32, "unit": "%"}, {"measurement": "Absorb. at 408 nm for 65 min.", "setting": "[1]; 1.0 ng/mL, Test #2", "value": ".17"}, {"measurement": "Absorb. at 408 nm for 180 min.", "setting": "[1]; 1.0 ng/mL, Test #2", "value": ".21"}, {"measurement": "nmol/min per mg", "setting": "[1]; 1.0 ng/mL, Test #2", "value": ".29 nmol/min per mg"}, {"measurement": "% Activity", "setting": "[1]; 2.9 ng/mL, Test #2", "value": 45, "unit": "%"}, {"measurement": "% Inhibition", "setting": "[1]; 2.9 ng/mL, Test #2", "value": 55, "unit": "%"}, {"measurement": "Absorb. at 408 nm for 65 min.", "setting": "[1]; 2.9 ng/mL, Test #2", "value": ".16"}, {"measurement": "Absorb. at 408 nm for 180 min.", "setting": "[1]; 2.9 ng/mL, Test #2", "value": ".14"}, {"measurement": "nmol/min per mg", "setting": "[1]; 2.9 ng/mL, Test #2", "value": ".19 nmol/min per mg"}, {"measurement": "% Activity", "setting": "[1]; 8.6 ng/mL, Test #2", "value": 26, "unit": "%"}, {"measurement": "% Inhibition", "setting": "[1]; 8.6 ng/mL, Test #2", "value": 74, "unit": "%"}, {"measurement": "Absorb. at 408 nm for 65 min.", "setting": "[1]; 8.6 ng/mL, Test #2", "value": ".11"}, {"measurement": "Absorb. at 408 nm for 180 min.", "setting": "[1]; 8.6 ng/mL, Test #2", "value": ".08"}, {"measurement": "nmol/min per mg", "setting": "[1]; 8.6 ng/mL, Test #2", "value": ".11 nmol/min per mg"}, {"measurement": "% Activity", "setting": "[1]; 26 ng/mL, Test #2", "value": 19, "unit": "%"}, {"measurement": "% Inhibition", "setting": "[1]; 26 ng/mL, Test #2", "value": 81, "unit": "%"}, {"measurement": "Absorb. at 408 nm for 65 min.", "setting": "[1]; 26 ng/mL, Test #2", "value": ".11"}, {"measurement": "Absorb. at 408 nm for 180 min.", "setting": "[1]; 26 ng/mL, Test #2", "value": ".06"}, {"measurement": "nmol/min per mg", "setting": "[1]; 26 ng/mL, Test #2", "value": ".08 nmol/min per mg"}, {"measurement": "% Activity", "setting": "[1]; 52 ng/mL, Test #2", "value": 13, "unit": "%"}, {"measurement": "% Inhibition", "setting": "[1]; 52 ng/mL, Test #2", "value": 87, "unit": "%"}, {"measurement": "Absorb. at 408 nm for 65 min.", "setting": "[1]; 52 ng/mL, Test #2", "value": ".09"}, {"measurement": "Absorb. at 408 nm for 180 min.", "setting": "[1]; 52 ng/mL, Test #2", "value": ".04"}, {"measurement": "nmol/min per mg", "setting": "[1]; 52 ng/mL, Test #2", "value": ".05 nmol/min per mg"}, {"measurement": "% Activity", "setting": "[1]; 78 ng/mL, Test #2", "value": 13, "unit": "%"}, {"measurement": "% Inhibition", "setting": "[1]; 78 ng/mL, Test #2", "value": 87, "unit": "%"}, {"measurement": "Absorb. at 408 nm for 65 min.", "setting": "[1]; 78 ng/mL, Test #2", "value": ".10"}, {"measurement": "Absorb. at 408 nm for 180 min.", "setting": "[1]; 78 ng/mL, Test #2", "value": ".04"}, {"measurement": "nmol/min per mg", "setting": "[1]; 78 ng/mL, Test #2", "value": ".05 nmol/min per mg"}, {"measurement": "% Activity", "setting": "[1]; 156 ng/mL, Test #2", "value": 13, "unit": "%"}, {"measurement": "% Inhibition", "setting": "[1]; 156 ng/mL, Test #2", "value": 87, "unit": "%"}, {"measurement": "Absorb. at 408 nm for 65 min.", "setting": "[1]; 156 ng/mL, Test #2", "value": ".10"}, {"measurement": "Absorb. at 408 nm for 180 min.", "setting": "[1]; 156 ng/mL, Test #2", "value": ".04"}, {"measurement": "nmol/min per mg", "setting": "[1]; 156 ng/mL, Test #2", "value": ".05 nmol/min per mg"}, {"measurement": "% Activity", "setting": "[1]; 313 ng/mL, Test #2", "value": 10, "unit": "%"}, {"measurement": "% Inhibition", "setting": "[1]; 313 ng/mL, Test #2", "value": 90, "unit": "%"}, {"measurement": "Absorb. at 408 nm for 65 min.", "setting": "[1]; 313 ng/mL, Test #2", "value": ".07"}, {"measurement": "Absorb. at 408 nm for 180 min.", "setting": "[1]; 313 ng/mL, Test #2", "value": ".03"}, {"measurement": "nmol/min per mg", "setting": "[1]; 313 ng/mL, Test #2", "value": ".04 nmol/min per mg"}, {"measurement": "% Activity", "setting": "[1]; 625 ng/mL, Test #2", "value": 10, "unit": "%"}, {"measurement": "% Inhibition", "setting": "[1]; 625 ng/mL, Test #2", "value": 90, "unit": "%"}, {"measurement": "Absorb. at 408 nm for 65 min.", "setting": "[1]; 625 ng/mL, Test #2", "value": ".07"}, {"measurement": "Absorb. at 408 nm for 180 min.", "setting": "[1]; 625 ng/mL, Test #2", "value": ".03"}, {"measurement": "nmol/min per mg", "setting": "[1]; 625 ng/mL, Test #2", "value": ".04 nmol/min per mg"}, {"measurement": "Absorb. at 405 nm for 50 min.", "setting": "[1]; [3]", "value": ".14"}, {"measurement": "Absorb. at 405 nm for 110 min.", "setting": "[1]; [3]", "value": ".10"}, {"measurement": "Absorb. at 405 nm for 165 min.", "setting": "[1]; [3]", "value": ".11"}, {"measurement": "Activity", "setting": "[1]; 2 μg of DNIO in 4.0 mL, Test #2, 200 μL saliva, 37° C. (no inhibitor: 1.14)", "value": ".22 nmol/min"}, {"measurement": "% Activity", "setting": "[1]; .04 ng/mL, Test #2", "value": 94, "unit": "%"}, {"measurement": "% Inhibition", "setting": "[1]; .04 ng/mL, Test #2", "value": 6, "unit": "%"}, {"measurement": "Absorb. at 408 nm for 65 min.", "setting": "[1]; .04 ng/mL, Test #2", "value": ".17"}, {"measurement": "Absorb. at 408 nm for 180 min.", "setting": "[1]; .04 ng/mL, Test #2", "value": ".29"}, {"measurement": "nmol/min per mg", "setting": "[1]; .04 ng/mL, Test #2", "value": ".39 nmol/min per mg"}, {"measurement": "% Activity", "setting": "[1]; .1 ng/mL, Test #2", "value": 90, "unit": "%"}, {"measurement": "% Inhibition", "setting": "[1]; .1 ng/mL, Test #2", "value": 10, "unit": "%"}, {"measurement": "Absorb. at 408 nm for 65 min.", "setting": "[1]; .1 ng/mL, Test #2", "value": ".14"}, {"measurement": "Absorb. at 408 nm for 180 min.", "setting": "[1]; .1 ng/mL, Test #2", "value": ".28"}, {"measurement": "nmol/min per mg", "setting": "[1]; .1 ng/mL, Test #2", "value": ".37 nmol/min per mg"}, {"measurement": "% Activity", "setting": "[1]; .3 ng/mL, Test #2", "value": 84, "unit": "%"}, {"measurement": "% Inhibition", "setting": "[1]; .3 ng/mL, Test #2", "value": 16, "unit": "%"}, {"measurement": "Absorb. at 408 nm for 65 min.", "setting": "[1]; .3 ng/mL, Test #2", "value": ".21"}, {"measurement": "Absorb. at 408 nm for 180 min.", "setting": "[1]; .3 ng/mL, Test #2", "value": ".26"}, {"measurement": "nmol/min per mg", "setting": "[1]; .3 ng/mL, Test #2", "value": ".34 nmol/min per mg"}, {"measurement": "Absorb. at 405 nm for 100 min.", "setting": "[1]; DNIO 4 μg in 4 mL, Test #1, 1.0 mL saliva, pH 7.8", "value": ".03"}, {"measurement": "effective concentration for 50% inhibition EC50", "setting": "[1]; acetylcholinesterase, human saliva", "value": 3, "unit": "ng/mL"}, {"measurement": "inhibition of acetylcholinesterase (in words)", "setting": "[1]; human saliva", "value": "inhibited"}, {"measurement": "concentration that produced 50% inhibition in AChE", "setting": "[1]; saliva incubated with inhibitor about 15 minutes before substrate", "value": 3, "unit": "ng per mL"}, {"measurement": "concentration producing 50% inhibition of esterase activity", "setting": "[2]", "value": 3, "unit": "ng/mL"}]}]}
